Patent US20070082949A1, “Agent for preventing and treating language disorders” (priority 2003, published 2007)

Legend:
language disorder = assay: Effect of EPA-E on a language-disordered patient with a history of cerebral infarction; assay type: in vivo, human
Experimental: A person with the history of cerebral infarction was treated. The patient experienced cerebral infarction in November, 2001, and started rehabilitation therapy of left hemiplegia from April, 2002. In June, 2002, the patient was hospitalized for 1 month because of recurrence of the cerebral infarction, and again started the rehabilitation therapy from August, 2002. The drugs that the patient had been taking before the EPA-E include: Gramalil (trade name; manufactured by Fujisawa Pharmaceutical Co., Ltd.; generic name, tiapride hydrochloride), Ketas (trade name; manufactured by Kyorin Pharmaceutical Co., Ltd.; generic name, ibudilast), Panaldine (trade name; manufactured by Daiichi Pharmaceutical Co., Ltd.; generic name, ticlopidine hydrochloride), Nivadil (trade name; manufactured by Fujisawa Pharmaceutical Co., Ltd.; generic name, nilvadipine), Altat (trade name; manufactured by Teikoku Hormone Mfg. Co., Ltd.; generic name, roxatidine acetate hydrochloride).
Before taking EPA-E, the patient could barely bring out a word. From September, 2002, the patient was administered with Epadel S600 (trade name; manufactured by Mochida Pharmaceutical Co., Ltd.; generic name, ethyl icosapentate) at a dose 600 mg and 3 times a day (namely, at a daily dose of 1800 mg).

rat = conditions: delayed discrimination test in rat; cited from earlier work
[1] = test system: cell derived from mouse connective tissue; conditions: cited from earlier work

CC/C=C\C/C=C\C/C=C\C/C=C\C/C=C\CCCC(=O)O [EPA, all-cis-5,8,11,14,17-icosapentaenoic acid]
side effects (overall conclusion) (language disorder; human, in vivo): no side effects | therapeutic effect for language disorder (overall conclusion) (language disorder; summary of Example 1): significant therapeutic effects for language disorder | correct reaction rate (rat): increase of correct reaction rate | NGF production [1]: action of enhancing NGF production

CC/C=C\C/C=C\C/C=C\C/C=C\C/C=C\CCCC(=O)OCC [EPA-E, ethyl icosapentate]
speech / conversation of the patient (language disorder; 1800 mg/day from September 2002, December 2002): able to carry on a complicated conversation comprising not only a single word but a plurality of words | frequency of conversation, vocabulary, communication ability (language disorder; 1800 mg/day from September 2002, February 2003): further improvement was noted in the frequency of conversation, vocabulary, communication ability | frequency of conversation and vocabulary (language disorder; 1800 mg/day from September 2002, January 2003): the frequency of the conversation as well as vocabulary increased even further | speech / conversation of the patient (language disorder; 1800 mg/day from September 2002, November 2002): responding “not hurting anywhere” when fallen from the bed, and waking up at night and responding “I am not sleepy” | adverse events (language disorder; 1800 mg/day, 6 months from the start of the administration): no adverse event suggested to be caused by EPA-E was found | speech / conversation of the patient (language disorder; person, Epadel S600 600 mg 3 times a day (1800 mg/day) from September 2002, late October 2002): started to respond by saying “Good morning”, and also started brief conversation with the care giver during the meal
